Source: patent US20130065936A1, “MODULATION OF BIOACTIVE EPOXY-FATTY ACID LEVELS BY PHOSPHODIESTERASE INHIBITORS” (THE REGENTS OF THE UNIVERSITY OF CALIFORNIA, priority 2010, published 2013)
Read-outs that look alike come from different tables or passages of the source. Each block holds one compound with its values, some of them ahead of it.

What was measured:
[1] = biological target: T1, sEH (Homo sapiens, UniProt P34913); assay: sEH inhibition as stated in the general description (earlier tests, '506 patent); type: biochemical
T1 sequence (P34913 1-555): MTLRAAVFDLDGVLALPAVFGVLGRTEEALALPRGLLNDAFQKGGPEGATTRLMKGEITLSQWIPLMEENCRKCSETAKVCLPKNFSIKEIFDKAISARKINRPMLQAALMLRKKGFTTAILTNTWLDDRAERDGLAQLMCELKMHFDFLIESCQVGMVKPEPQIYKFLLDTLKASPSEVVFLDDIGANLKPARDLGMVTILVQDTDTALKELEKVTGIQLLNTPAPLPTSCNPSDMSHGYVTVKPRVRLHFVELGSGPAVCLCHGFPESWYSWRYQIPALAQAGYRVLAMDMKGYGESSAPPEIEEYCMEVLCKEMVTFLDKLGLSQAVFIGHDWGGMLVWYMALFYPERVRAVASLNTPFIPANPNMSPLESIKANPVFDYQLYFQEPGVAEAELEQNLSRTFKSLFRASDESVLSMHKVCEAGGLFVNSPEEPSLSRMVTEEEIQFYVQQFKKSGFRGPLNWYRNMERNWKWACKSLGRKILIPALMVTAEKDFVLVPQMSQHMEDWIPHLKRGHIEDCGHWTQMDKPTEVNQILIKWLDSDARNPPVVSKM

[2] = biological target: T2, recombinant mouse sEH (Mus musculus, UniProt P34914); assay: Potency on recombinant mouse sEH, fluorescent substrate; type: biochemical
T2 construct: made in house
T2 sequence (P34914 1-554): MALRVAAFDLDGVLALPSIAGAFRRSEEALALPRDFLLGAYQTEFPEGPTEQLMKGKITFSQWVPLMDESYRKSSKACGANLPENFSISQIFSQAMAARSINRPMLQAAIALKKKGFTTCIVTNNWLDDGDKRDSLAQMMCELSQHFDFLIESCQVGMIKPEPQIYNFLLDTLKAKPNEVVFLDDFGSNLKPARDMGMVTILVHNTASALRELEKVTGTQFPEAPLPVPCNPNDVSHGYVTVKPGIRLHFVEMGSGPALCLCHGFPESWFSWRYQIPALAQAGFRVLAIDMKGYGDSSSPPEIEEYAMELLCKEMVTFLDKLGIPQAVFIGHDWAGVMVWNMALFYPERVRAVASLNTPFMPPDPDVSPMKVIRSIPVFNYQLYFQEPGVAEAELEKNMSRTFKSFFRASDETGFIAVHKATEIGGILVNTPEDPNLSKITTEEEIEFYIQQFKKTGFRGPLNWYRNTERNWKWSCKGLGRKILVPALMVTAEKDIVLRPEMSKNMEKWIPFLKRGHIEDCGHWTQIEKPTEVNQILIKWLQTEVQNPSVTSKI

[3] = biological target: T3, recombinant rat sEH (Rattus norvegicus, UniProt P80299); assay: Potency on recombinant rat sEH, fluorescent substrate; type: biochemical
T3 construct: made in house
T3 sequence (P80299 1-554): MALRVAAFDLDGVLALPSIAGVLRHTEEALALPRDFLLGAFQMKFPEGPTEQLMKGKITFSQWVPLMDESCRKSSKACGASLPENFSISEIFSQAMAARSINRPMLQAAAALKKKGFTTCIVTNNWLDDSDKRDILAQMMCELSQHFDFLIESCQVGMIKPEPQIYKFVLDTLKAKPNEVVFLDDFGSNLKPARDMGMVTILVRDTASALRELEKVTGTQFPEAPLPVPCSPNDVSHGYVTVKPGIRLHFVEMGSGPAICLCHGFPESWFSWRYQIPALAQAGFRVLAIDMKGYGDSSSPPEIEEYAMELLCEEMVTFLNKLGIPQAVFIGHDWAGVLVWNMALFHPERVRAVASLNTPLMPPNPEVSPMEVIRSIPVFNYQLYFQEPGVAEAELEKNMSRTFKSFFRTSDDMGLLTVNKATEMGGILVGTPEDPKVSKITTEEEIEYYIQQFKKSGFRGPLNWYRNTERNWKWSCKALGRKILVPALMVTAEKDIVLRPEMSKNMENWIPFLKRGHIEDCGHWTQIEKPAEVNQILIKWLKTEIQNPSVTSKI

[4] = test system: endogenous oxylipin sEH substrates and products in rat plasma; assay: Oxylipin analysis in rat plasma after sEHI / PDE inhibitor administration (LC-ESI-MS/MS); type: in vivo;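 note: plasma from tail vein blood, oxylipins quantified by LC-ESI-MS/MS against deuterated internal standards following solid-phase extraction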
[5] = test system: Sprague-Dawley rats; assay: Acute nociceptive responses in healthy rats, Hargreaves thermal withdrawal latency; type: in vivo, rat; settings: for thermal withdrawal latency / pain related behavior, change from predrug baseline: s.c., about 1 h after administration; for antagonism of / interaction with rolipram-produced increase in thermal withdrawal latency: Hargreaves, celecoxib 20, fluconazole 40, micanozole 40, finasteride 10, picrotoxin 0.25 mg/kg
[6] = test system: Sprague-Dawley rats; assay: Open field activity; type: in vivo, rat; settings: 1 h following administration
Protocol: For the measurement of open field activity animals were placed in an acrylic chamber (40×40×20 cm length×width×height) divided into 100 cm^2 (10×10 cm) sections. The number of crossings were recorded when both hind paws crossed into a neighboring cell.

[7] = test system: Sprague-Dawley rats; assay: Acute nociceptive responses in healthy rats, Randall-Selitto mechanical sensitivity assay; type: in vivo, rat; settings: picrotoxin 0.25 mg/kg s.c.
[8] = rat plasma 60 min after s.c., TPAU 10 mg/kg, rolipram 1 mg/kg
[9] = rat plasma 60 min after s.c., TPAU 10 mg/kg, rolipram 1 mg/kg, listed as rolipram
[10] = rat plasma 45 min after s.c., 1 mg/kg, pentoxyphilline 10 mg/kg

- activity as inhibitor of sEH [1]: particularly high activity on sEH
Compound: CCCCCCCCCCCCNC(=O)NC12CC3CC(CC(C3)C1)C2 [ADU, N-Adamantyl-N′-dodecyl urea]

Compound: COc1ccc(C2CNC(=O)C2)cc1OC1CCCC1 (stereo not shown) [Rolipram]
- IC50 [2]: > 10 µM
- inhibitory activity in the sEH assay ([3]; 10 and 100 μM, recombinant rat enzyme): No inhibition was observed
- IC50 ([3]; read-out: IC50 on recombinant rat sEH): > 100 µM
- IC50 ([3]; recombinant sEH, read-out: IC50 Rat): > 10 µM
- 8(9)-EpETE [4, 8]: 1.25 nM
- 8(9)-EpETrE [4, 8]: 9.63 nM
- 8,9-DiHETE [4, 8]: 0.07 nM
- 8,9-DiHETrE [4, 8]: 0.45 nM
- 9(10)-EpOME [4, 8]: 55.27 nM
- 9,10-DiHOME [4, 8]: 24.32 nM
- 10(11)-EpDPE [4, 8]: 7.51 nM
- 10,11-DiHDPE [4, 8]: 0.33 nM
- 11(12)-EpETE [4, 8]: 0.93 nM
- 11(12)-EpETrE [4, 8]: 13.15 nM
- 11,12-DiHETE [4, 8]: 0.20 nM
- 11,12-DiHETrE [4, 8]: 1.67 nM
- 12(13)-EpOME [4, 8]: 36.32 nM
- 12,13-DiHOME [4, 8]: 42.01 nM
- 13(14)-EpDPE [4, 8]: 3.88 nM
- 13,14-DiHDPE [4, 8]: 0.37 nM
- 14(15)-EpETE [4, 8]: 0.84 nM
- 14(15)-EpETrE [4, 8]: 8.52 nM
- 14,15-DiHETE [4, 8]: 0.28 nM
- 14,15-DiHETrE [4, 8]: 1.74 nM
- 16(17)-EpDPE [4, 8]: 3.93 nM
- 16,17-DiHDPE [4, 8]: 0.72 nM
- 17(18)-EpETE [4, 8]: 1.76 nM
- 17,18-DiHETE [4, 8]: 0.77 nM
- 19(20)-EpDPE [4, 8]: 7.46 nM
- 19,20-DiHDPE [4, 8]: 2.13 nM
- total Dihydroxyeicosanoid [4, 8]: 75.1 nM
- total Epoxyeicosanoid [4, 8]: 150.4 nM
- 12(13)-EpOME [4, 9]: no increase
- 12,13-DiHOME [4, 9]: significant elevation
- thermal withdrawal latency ([5]; healthy rats, 2 and 4 h after treatments): devoid of effect on withdrawal latency
- thermal withdrawal latency / pain related behavior, change from predrug baseline ([5]; healthy rats): effective in elevating pain thresholds
- voluntary movement in an open-field chamber (motor depressant effect) [6]: significant and dose-dependent decrease in voluntary movement

- voluntary movement in an open-field chamber (motor depressant effect) [6]: indistinguishable from baseline activity
Compound: CC(=O)N1CCC(NC(=O)Nc2ccc(OC(F)(F)F)cc2)CC1 [TPAU]

Compound: CCc1ccc2c(-c3cccc(Cl)c3)nc(=O)n(CC)c2n1 [YM976]
- 8(9)-EpETE [4, 10]: 2.74 nM
- 8(9)-EpETrE [4, 10]: 13.59 nM
- 8,9-DiHETE [4, 10]: 0.29 nM
- 8,9-DiHETrE [4, 10]: 0.58 nM
- 9(10)-EpOME [4, 10]: 147.05 nM
- 9,10-DiHOME [4, 10]: 37.07 nM
- 10(11)-EpDPE [4, 10]: 20.16 nM
- 10,11-DiHDPE [4, 10]: 0.82 nM
- 11(12)-EpETE [4, 10]: 2.23 nM
- 11(12)-EpETrE [4, 10]: 22.80 nM
- 11,12-DiHETE [4, 10]: 0.48 nM
- 11,12-DiHETrE [4, 10]: 1.55 nM
- 12(13)-EpOME [4, 10]: 159.31 nM
- 12,13-DiHOME [4, 10]: 57.32 nM
- 13(14)-EpDPE [4, 10]: 10.28 nM
- 13,14-DiHDPE [4, 10]: 0.81 nM
- 14(15)-EpETE [4, 10]: 1.99 nM
- 14(15)-EpETrE [4, 10]: 26.50 nM
- 14,15-DiHETE [4, 10]: 1.19 nM
- 14,15-DiHETrE [4, 10]: 1.84 nM
- 16(17)-EpDPE [4, 10]: 10.41 nM
- 16,17-DiHDPE [4, 10]: 2.22 nM
- 17(18)-EpETE [4, 10]: 4.49 nM
- 17,18-DiHETE [4, 10]: 2.95 nM
- 19(20)-EpDPE [4, 10]: 18.10 nM
- 19,20-DiHDPE [4, 10]: 6.24 nM
- Ratio 8(9)-EpETE / 8,9-DiHETE [4, 10]: 9.62
- Ratio 8(9)-EpETrE / 8,9-DiHETrE [4, 10]: 23.44
- Ratio 9(10)-EpOME / 9,10-DiHOME [4, 10]: 3.97
- Ratio 10(11)-EpDPE / 10,11-DiHDPE [4, 10]: 24.59
- Ratio 11(12)-EpETE / 11,12-DiHETE [4, 10]: 4.69
- Ratio 11(12)-EpETrE / 11,12-DiHETrE [4, 10]: 14.76
- Ratio 12(13)-EpOME / 12,13-DiHOME [4, 10]: 2.78
- Ratio 13(14)-EpDPE / 13,14-DiHDPE [4, 10]: 12.66
- Ratio 14(15)-EpETE / 14,15-DiHETE [4, 10]: 1.67
- Ratio 14(15)-EpETrE / 14,15-DiHETrE [4, 10]: 14.43
- Ratio 16(17)-EpDPE / 16,17-DiHDPE [4, 10]: 4.68
- Ratio 17(18)-EpETE / 17,18-DiHETE [4, 10]: 1.52
- Ratio 19(20)-EpDPE / 19,20-DiHDPE [4, 10]: 2.90
- total Di-hydroxyeicosanoid [4, 10]: 423.59 nM
- total Epoxyeicosanoid [4, 10]: 535.16 nM
- total Ratio epoxy/dihydroxy eicosanoids [4, 10]: 1.26

Compound: CC(C)(C)NC(=O)[C@H]1CC[C@H]2[C@@H]3CC[C@H]4NC(=O)C=C[C@]4(C)[C@H]3CC[C@]12C [finasteride]
- antagonism of / interaction with rolipram-produced increase in thermal withdrawal latency [5]: competitive antagonism

Compound: OC(Cn1cncn1)(Cn1cncn1)c1ccc(F)cc1F [fluconazole]
- antagonism of / interaction with rolipram-produced increase in thermal withdrawal latency [5]: Noncompetitive antagonism

Compound: Clc1ccc(COC(Cn2ccnc2)c2ccc(Cl)cc2Cl)c(Cl)c1 (stereo not shown) [micanozole]
- antagonism of / interaction with rolipram-produced increase in thermal withdrawal latency [5]: lack of antagonism

Compound: picrotoxin
- antagonism of / interaction with rolipram-produced increase in thermal withdrawal latency [5]: partially blocked rolipram
- thermal withdrawal latency / pain related behavior, change from predrug baseline ([5]; healthy rats): ineffective on its own in changing pain related behavior
- antagonism of the increase in thermal withdrawal latency produced by rolipram/AUDA ([5]; picrotoxin 0.25 mg/kg s.c.): effectively antagonized
- antagonism of the increase in mechanical withdrawal threshold produced by rolipram/AUDA [7]: effectively antagonized
